# Data from patent publication US4540517A, “Antibiotic TAN-420” (Takeda Chemical Industries, Ltd., priority 1982, dated 1985).
# Like-named read-outs stand apart in the source and are kept apart here.
# Columns and labels:
# [1] = tested on: gram-positive bacteria, fungi and protozoae; test: Antimicrobial activity (general statement); conditions: considered, relative to TAN-420B
# Tetrahymena pyriformis W = test: Liquid dilution assay of antiprotozoal activity; format: cell-based; conditions: read-out: minimal inhibitory concentration
# Escherichia coli K12 = test: Agar dilution assay, antimicrobial activity; format: cell-based
# Procedure: (§1) The antimicrobial activity of Antibiotic TAN-420B, C, D and E was assayed by the agar dilution method using Typticase soy agar (Baltimore Biological Laboratories, U.S.A.) as the test medium.
# [2] = tested on: Micrococcus flavus IFO 3242; test: Agar dilution assay, antimicrobial activity; format: cell-based
# Procedure: as §1
# [3] = tested on: Bacillus subtilis PCI 219; test: Agar dilution assay, antimicrobial activity; format: cell-based
# Procedure: as §1
# B. pumilus IFO 3813 = test: Agar dilution assay, antimicrobial activity; format: cell-based; conditions: Bacillus pumilus
# Procedure: as §1
# B. brevis IFO 3331 = test: Agar dilution assay, antimicrobial activity; format: cell-based; conditions: Brevibacillus brevis
# Procedure: as §1
# B. cereus IFO 3514 = test: Agar dilution assay, antimicrobial activity; format: cell-based; conditions: Bacillus cereus
# Procedure: as §1
# B. megaterium IFO 12108 = test: Agar dilution assay, antimicrobial activity; format: cell-based; conditions: Priestia megaterium
# Procedure: as §1
# [4] = tested on: Pseudomonas aeruginosa IFO 3080; test: Agar dilution assay, antimicrobial activity; format: cell-based
# Procedure: as §1
# [5] = tested on: Staphylococcus aureus FDA 209P; test: Agar dilution assay, antimicrobial activity; format: cell-based; conditions: FDA209P, read-out: Minimal inhibitory concentration
# Procedure: as §1
# [6] = Acute toxicity (mouse, intraperitoneal); conditions: in vivo, ip
# Procedure: As regards the acute toxocity of Antibiotic TAN-420 (mouse, intraperitoneal), the LD50 value of TAN-420C was 200 to 400 mg/kg, that of TAN-420D was 100 mg/kg, and that of TAN-420E was 50 mg/kg. It is therefore, considered that the toxicity of Antibiotic TAN-420 is low.
# [7] = Toxicity compared with herbimycin A; conditions: comparison in words
# [8] = known from Journal of Antibiotics 32, 255-261 (1979), Tetrahedron Letters No. 44, 4323-4326 (1979); cited from earlier work
# [9] = liquid dilution assay, Tetrahymena pyriformis W
# [10] = agar dilution, Escherichia coli K12, read-out: Minimal inhibitory concentration
# [11] = IFO3242, agar dilution, Micrococcus flavus IFO 3242, read-out: Minimal inhibitory concentration
# [12] = PCI219, agar dilution, Bacillus subtilis PCI 219, read-out: Minimal inhibitory concentration
# [13] = IFO3813, agar dilution, B. pumilus IFO 3813, read-out: Minimal inhibitory concentration
# [14] = IFO3331, agar dilution, B. brevis IFO 3331, read-out: Minimal inhibitory concentration
# [15] = IFO3514, agar dilution, B. cereus IFO 3514, read-out: Minimal inhibitory concentration
# [16] = IFO12108, agar dilution, B. megaterium IFO 12108, read-out: Minimal inhibitory concentration
# [17] = IFO3080, agar dilution, Pseudomonas aeruginosa IFO 3080, read-out: Minimal inhibitory concentration
# [18] = agar dilution, Staphylococcus aureus FDA 209P
SMILES,MIC (Tetrahymena pyriformis W; [9]) [mg/L],LD50 [6] [mg/kg],toxicity relative to herbimycin A [7],MIC (Escherichia coli K12; [10]) [mg/L],"MIC [2, 11] [mg/L]","MIC [3, 12] [mg/L]",MIC (B. pumilus IFO 3813; [13]) [mg/L],MIC (B. brevis IFO 3331; [14]) [mg/L],MIC (B. cereus IFO 3514; [15]) [mg/L],MIC (B. megaterium IFO 12108; [16]) [mg/L],"MIC [4, 17] [mg/L]","MIC [5, 18] [mg/L]",other results
COC1C=CC=C(C)C(=O)Nc2cc(O)cc(c2O)C(OC)C(C)CC(O)C(O)C(C)C=C(C)C1OC(N)=O (stereo not drawn) [TAN-420A],–,–,–,–,–,–,–,–,–,–,–,–,antimicrobial activity [1]: of the same order as that of TAN-420B
COC1C=CC=C(C)C(=O)NC2=CC(=O)C=C(C2=O)C(OC)C(C)CC(O)C(O)C(C)C=C(C)C1OC(N)=O (stereo not drawn) [TAN-420B],–,–,–,–,–,–,–,–,–,–,–,–,"MIC (Tetrahymena pyriformis W; Tetrahymena pyriformis): 40 mg/L; MIC (Escherichia coli K12; Escherichia coli, K12, read-out: Minimal inhibitory concentration): > 100 mg/L; MIC ([2]; Micrococcus flavus, IFO3242, read-out: Minimal inhibitory concentration): 25 mg/L; MIC ([3]; Bacillus subtilis, PCI219, read-out: Minimal inhibitory concentration): > 100 mg/L; MIC (B. pumilus IFO 3813; IFO3813, read-out: Minimal inhibitory concentration): 100 mg/L; MIC (B. brevis IFO 3331; IFO3331, read-out: Minimal inhibitory concentration): 50 mg/L; MIC (B. cereus IFO 3514; IFO3514, read-out: Minimal inhibitory concentration): 100 mg/L; MIC (B. megaterium IFO 12108; IFO12108, read-out: Minimal inhibitory concentration): 100 mg/L; MIC ([4]; Pseudomonas aeruginosa, IFO3080, read-out: Minimal inhibitory concentration): > 100 mg/L; MIC ([5]; Staphylococcus aureus): 100 mg/L"
COC1C=CC=C(C)C(=O)Nc2cc(O)cc(c2O)C(OC)C(C)CC(OC)C(O)C(C)C=C(C)C1OC(N)=O (stereo not drawn) [TAN-420C],10,200 to 400,lower than that of herbimycin A,> 100,25,> 100,100,50,100,100,> 100,100,–
COC1C=CC=C(C)C(=O)NC2=CC(=O)C=C(C2=O)C(OC)C(C)CC(OC)C(O)C(C)C=C(C)C1OC(N)=O (stereo not drawn) [TAN-420D],4,100,lower than that of herbimycin A,> 100,25,> 100,100,50,100,100,> 100,100,–
COC1C=CC=C(C)C(=O)Nc2cc(O)cc(c2O)C(OC)C(C)CC(OC)C(OC)C(C)C=C(C)C1OC(N)=O (stereo not drawn) [TAN-420E],2,50,lower than that of herbimycin A,> 100,50,100,100,50,100,50,> 100,100,–
COC1C=CC=C(C)C(=O)NC2=CC(=O)C=C(C2=O)C(OC)C(C)CC(OC)C(OC)C(C)C=C(C)C1OC(N)=O (stereo not drawn) [herbimycin A],–,–,–,–,–,–,–,–,–,–,–,–,herbicidal activity [8]: has herbicidal activity
